Laboratory results taken from ChEMBL document CHEMBL3400097, “Effect of arginine methylation on the RNA recognition and cellular uptake of Tat-derived peptides” (Bioorg Med Chem, 2015).

Columns and labels:
Nucleic Acid = assay: Binding affinity to HIV TAR RNA by electrophoretic mobility shift assay in presence of Escherichia coli tRNA; type: nucleic-acid assay, Human immunodeficiency virus
Jurkat = assay: Cytotoxicity against human Jurkat cells assessed as cell viability at 120 uM after 4 hrs by WST-1 assay; type: cell-based

Compound	Kd (Nucleic Acid)	Activity (Jurkat)
CC(=O)N[C@@H](Cc1ccc(O)cc1)C(=O)NCC(=O)N[C@@H](CCCNC(=N)N)C(=O)N[C@@H](CCCCN)C(=O)N[C@@H](CCCCN)C(=O)N[C@@H](CCCNC(=N)N)C(=O)N[C@@H](CCCNC(=N)N)C(=O)N[C@@H](CCC(N)=O)C(=O)N[C@@H](CCCNC(=N)N)C(=O)N[C@@H](CCCNC(=N)N)C(=O)N[C@@H](CCCNC(=N)N)C(N)=O	260 nM	Non-toxic
CNC(=N)NCCC[C@H](NC(=O)CNC(=O)[C@H](Cc1ccc(O)cc1)NC(C)=O)C(=O)N[C@@H](CCCCN)C(=O)N[C@@H](CCCCN)C(=O)N[C@@H](CCCNC(=N)N)C(=O)N[C@@H](CCCNC(=N)N)C(=O)N[C@@H](CCC(N)=O)C(=O)N[C@@H](CCCNC(=N)N)C(=O)N[C@@H](CCCNC(=N)N)C(=O)N[C@@H](CCCNC(=N)N)C(N)=O	285 nM	Non-toxic
CNC(=N)NCCC[C@H](NC(=O)[C@H](CCCCN)NC(=O)[C@H](CCCCN)NC(=O)[C@H](CCCNC(=N)N)NC(=O)CNC(=O)[C@H](Cc1ccc(O)cc1)NC(C)=O)C(=O)N[C@@H](CCCNC(=N)N)C(=O)N[C@@H](CCC(N)=O)C(=O)N[C@@H](CCCNC(=N)N)C(=O)N[C@@H](CCCNC(=N)N)C(=O)N[C@@H](CCCNC(=N)N)C(N)=O	310 nM	Non-toxic
CNC(=N)NCCC[C@H](NC(=O)[C@H](CCCNC(=N)N)NC(=O)[C@H](CCCCN)NC(=O)[C@H](CCCCN)NC(=O)[C@H](CCCNC(=N)N)NC(=O)CNC(=O)[C@H](Cc1ccc(O)cc1)NC(C)=O)C(=O)N[C@@H](CCC(N)=O)C(=O)N[C@@H](CCCNC(=N)N)C(=O)N[C@@H](CCCNC(=N)N)C(=O)N[C@@H](CCCNC(=N)N)C(N)=O	383 nM	Non-toxic
CNC(=N)NCCC[C@H](NC(=O)[C@H](CCC(N)=O)NC(=O)[C@H](CCCNC(=N)N)NC(=O)[C@H](CCCNC(=N)N)NC(=O)[C@H](CCCCN)NC(=O)[C@H](CCCCN)NC(=O)[C@H](CCCNC(=N)N)NC(=O)CNC(=O)[C@H](Cc1ccc(O)cc1)NC(C)=O)C(=O)N[C@@H](CCCNC(=N)N)C(=O)N[C@@H](CCCNC(=N)N)C(N)=O	380 nM	Non-toxic
CNC(=N)NCCC[C@H](NC(=O)[C@H](CCCNC(=N)N)NC(=O)[C@H](CCC(N)=O)NC(=O)[C@H](CCCNC(=N)N)NC(=O)[C@H](CCCNC(=N)N)NC(=O)[C@H](CCCCN)NC(=O)[C@H](CCCCN)NC(=O)[C@H](CCCNC(=N)N)NC(=O)CNC(=O)[C@H](Cc1ccc(O)cc1)NC(C)=O)C(=O)N[C@@H](CCCNC(=N)N)C(N)=O	219 nM	Non-toxic
CNC(=N)NCCC[C@H](NC(=O)[C@H](CCCNC(=N)N)NC(=O)[C@H](CCCNC(=N)N)NC(=O)[C@H](CCC(N)=O)NC(=O)[C@H](CCCNC(=N)N)NC(=O)[C@H](CCCNC(=N)N)NC(=O)[C@H](CCCCN)NC(=O)[C@H](CCCCN)NC(=O)[C@H](CCCNC(=N)N)NC(=O)CNC(=O)[C@H](Cc1ccc(O)cc1)NC(C)=O)C(N)=O	197 nM	Non-toxic
CC(=O)N[C@@H](Cc1ccc(O)cc1)C(=O)NCC(=O)N[C@@H](CCCNC(=N)N(C)C)C(=O)N[C@@H](CCCCN)C(=O)N[C@@H](CCCCN)C(=O)N[C@@H](CCCNC(=N)N)C(=O)N[C@@H](CCCNC(=N)N)C(=O)N[C@@H](CCC(N)=O)C(=O)N[C@@H](CCCNC(=N)N)C(=O)N[C@@H](CCCNC(=N)N)C(=O)N[C@@H](CCCNC(=N)N)C(N)=O	279 nM	Non-toxic
CC(=O)N[C@@H](Cc1ccc(O)cc1)C(=O)NCC(=O)N[C@@H](CCCNC(=N)N)C(=O)N[C@@H](CCCCN)C(=O)N[C@@H](CCCCN)C(=O)N[C@@H](CCCNC(=N)N(C)C)C(=O)N[C@@H](CCCNC(=N)N)C(=O)N[C@@H](CCC(N)=O)C(=O)N[C@@H](CCCNC(=N)N)C(=O)N[C@@H](CCCNC(=N)N)C(=O)N[C@@H](CCCNC(=N)N)C(N)=O	385 nM	Non-toxic
CC(=O)N[C@@H](Cc1ccc(O)cc1)C(=O)NCC(=O)N[C@@H](CCCNC(=N)N)C(=O)N[C@@H](CCCCN)C(=O)N[C@@H](CCCCN)C(=O)N[C@@H](CCCNC(=N)N)C(=O)N[C@@H](CCCNC(=N)N(C)C)C(=O)N[C@@H](CCC(N)=O)C(=O)N[C@@H](CCCNC(=N)N)C(=O)N[C@@H](CCCNC(=N)N)C(=O)N[C@@H](CCCNC(=N)N)C(N)=O	881 nM	Non-toxic
CC(=O)N[C@@H](Cc1ccc(O)cc1)C(=O)NCC(=O)N[C@@H](CCCNC(=N)N)C(=O)N[C@@H](CCCCN)C(=O)N[C@@H](CCCCN)C(=O)N[C@@H](CCCNC(=N)N)C(=O)N[C@@H](CCCNC(=N)N)C(=O)N[C@@H](CCC(N)=O)C(=O)N[C@@H](CCCNC(=N)N(C)C)C(=O)N[C@@H](CCCNC(=N)N)C(=O)N[C@@H](CCCNC(=N)N)C(N)=O	398 nM	Non-toxic
CC(=O)N[C@@H](Cc1ccc(O)cc1)C(=O)NCC(=O)N[C@@H](CCCNC(=N)N)C(=O)N[C@@H](CCCCN)C(=O)N[C@@H](CCCCN)C(=O)N[C@@H](CCCNC(=N)N)C(=O)N[C@@H](CCCNC(=N)N)C(=O)N[C@@H](CCC(N)=O)C(=O)N[C@@H](CCCNC(=N)N)C(=O)N[C@@H](CCCNC(=N)N(C)C)C(=O)N[C@@H](CCCNC(=N)N)C(N)=O	404 nM	Non-toxic
CC(=O)N[C@@H](Cc1ccc(O)cc1)C(=O)NCC(=O)N[C@@H](CCCNC(=N)N)C(=O)N[C@@H](CCCCN)C(=O)N[C@@H](CCCCN)C(=O)N[C@@H](CCCNC(=N)N)C(=O)N[C@@H](CCCNC(=N)N)C(=O)N[C@@H](CCC(N)=O)C(=O)N[C@@H](CCCNC(=N)N)C(=O)N[C@@H](CCCNC(=N)N)C(=O)N[C@@H](CCCNC(=N)N(C)C)C(N)=O	277 nM	Non-toxic
C/N=C(\NC)NCCC[C@H](NC(=O)CNC(=O)[C@H](Cc1ccc(O)cc1)NC(C)=O)C(=O)N[C@@H](CCCCN)C(=O)N[C@@H](CCCCN)C(=O)N[C@@H](CCCNC(=N)N)C(=O)N[C@@H](CCCNC(=N)N)C(=O)N[C@@H](CCC(N)=O)C(=O)N[C@@H](CCCNC(=N)N)C(=O)N[C@@H](CCCNC(=N)N)C(=O)N[C@@H](CCCNC(=N)N)C(N)=O	219 nM	Non-toxic
C/N=C(\NC)NCCC[C@H](NC(=O)[C@H](CCCCN)NC(=O)[C@H](CCCCN)NC(=O)[C@H](CCCNC(=N)N)NC(=O)CNC(=O)[C@H](Cc1ccc(O)cc1)NC(C)=O)C(=O)N[C@@H](CCCNC(=N)N)C(=O)N[C@@H](CCC(N)=O)C(=O)N[C@@H](CCCNC(=N)N)C(=O)N[C@@H](CCCNC(=N)N)C(=O)N[C@@H](CCCNC(=N)N)C(N)=O	328 nM	Non-toxic
C/N=C(\NC)NCCC[C@H](NC(=O)[C@H](CCCNC(=N)N)NC(=O)[C@H](CCCCN)NC(=O)[C@H](CCCCN)NC(=O)[C@H](CCCNC(=N)N)NC(=O)CNC(=O)[C@H](Cc1ccc(O)cc1)NC(C)=O)C(=O)N[C@@H](CCC(N)=O)C(=O)N[C@@H](CCCNC(=N)N)C(=O)N[C@@H](CCCNC(=N)N)C(=O)N[C@@H](CCCNC(=N)N)C(N)=O	576 nM	Non-toxic
C/N=C(\NC)NCCC[C@H](NC(=O)[C@H](CCC(N)=O)NC(=O)[C@H](CCCNC(=N)N)NC(=O)[C@H](CCCNC(=N)N)NC(=O)[C@H](CCCCN)NC(=O)[C@H](CCCCN)NC(=O)[C@H](CCCNC(=N)N)NC(=O)CNC(=O)[C@H](Cc1ccc(O)cc1)NC(C)=O)C(=O)N[C@@H](CCCNC(=N)N)C(=O)N[C@@H](CCCNC(=N)N)C(N)=O	527 nM	Non-toxic
